# From PMC7413254 (Nature Communications, 2020)
# Like-named read-outs stand apart in the source and are kept apart here.
# What was measured:
# non-expressing oocytes [1] = assay type: cell-based, Xenopus laevis; conditions: non-expressing oocytes, total [3H]CQ transport, normalised to the oocyte type control
# Outline: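 Oocytes (ten per treatment, ≥4 independent frogs/days) were preloaded by injecting VF-6 in 25 nL ND96 at pH 5.0, 5.5, 6.0 or 7.0, or Na^+-free choline buffer, then uptake run 1.5 h, 27.5 °C, ND96 pH 5.5 by default. Internal concentrations assumed ~400 nL oocyte volume.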
# PfNT1 = target: T1, PfNT1 (Plasmodium falciparum, UniProt Q8IDM6); experiment: cell-based; assay type: cell-based; conditions: PfNT1 oocytes, total [3H]CQ transport, normalised to the oocyte type control
# T1 construct: expressed in transfected cells; host or cells: Xenopus laevis oocytes (stage V-VI), cRNA-injected
# T1 sequence (Q8IDM6 whole entry): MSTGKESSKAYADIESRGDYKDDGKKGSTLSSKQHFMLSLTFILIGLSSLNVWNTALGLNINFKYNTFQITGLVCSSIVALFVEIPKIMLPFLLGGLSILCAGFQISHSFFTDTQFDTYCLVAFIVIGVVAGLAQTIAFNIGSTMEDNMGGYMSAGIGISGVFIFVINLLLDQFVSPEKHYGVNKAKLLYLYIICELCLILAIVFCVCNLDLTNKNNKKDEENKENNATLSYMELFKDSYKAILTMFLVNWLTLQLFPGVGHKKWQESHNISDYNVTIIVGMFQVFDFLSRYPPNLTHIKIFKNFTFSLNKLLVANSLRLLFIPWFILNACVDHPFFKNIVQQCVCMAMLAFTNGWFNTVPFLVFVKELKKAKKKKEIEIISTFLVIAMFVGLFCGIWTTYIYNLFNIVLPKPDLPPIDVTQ
# Outline: (§1)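 Transport measured in Xenopus oocytes expressing the transporters, 1.5 h at 27.5 °C in ND96 pH 5.5 unless noted. For trans-stimulation, VF-6 injected in 25 nL ND96 at pH 5.0–7.0 or Na^+-free (choline) buffer; intracellular levels based on ~400 nL oocyte volume. Ten oocytes per treatment, ≥4 experiments.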
# PfCRT^Ecu1110 [2] = target: T2, PfCRT^Ecu1110 (Plasmodium falciparum, UniProt Q9N623, A220S/I356L/K76T/N326D); experiment: cell-based; assay type: cell-based; conditions: for Uptake of [3H]CQ (% PfCRTEcu1110 control), trans-stimulation / PfCRT-mediated [3H]CQ transport, trans-stimulation (% PfCRTEcu1110 control): PfCRTEcu1110 oocytes; for Uptake of [3H]CQ (% PfCRTEcu1110 control), trans-stimulation: total [3H]CQ transport, normalised to the oocyte type control; for PfCRT-mediated [3H]CQ transport, trans-stimulation (% PfCRTEcu1110 control): normalised to oocyte type control; for [3H]CQ transport (% PfCRTDd2 control), trans-stimulation, PfCRTEcu1110: PfCRT-mediated component (background subtracted), sheet title says normalised to PfCRTDd2 control, mean ± SEM, SEM
# T2 sequence (Q9N623 whole entry A220S/I356L/K76T/N326D): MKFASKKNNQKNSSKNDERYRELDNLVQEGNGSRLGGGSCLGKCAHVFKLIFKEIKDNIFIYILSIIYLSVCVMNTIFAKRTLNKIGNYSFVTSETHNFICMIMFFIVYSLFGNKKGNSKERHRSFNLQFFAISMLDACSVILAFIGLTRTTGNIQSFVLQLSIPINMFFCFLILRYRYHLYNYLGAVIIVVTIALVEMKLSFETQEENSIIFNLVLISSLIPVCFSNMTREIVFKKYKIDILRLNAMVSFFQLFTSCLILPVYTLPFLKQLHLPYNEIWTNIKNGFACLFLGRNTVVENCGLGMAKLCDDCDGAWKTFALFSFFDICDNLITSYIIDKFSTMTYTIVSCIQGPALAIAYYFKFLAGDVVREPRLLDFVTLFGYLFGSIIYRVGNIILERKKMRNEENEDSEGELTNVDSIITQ
# Outline: as §1
# PfCRT^Dd2 [3] = target: T3, PfCRT^Dd2 (Plasmodium falciparum, UniProt Q9N623, A220S/I356T/K76T/M74I/N326S/N75E/Q271E/R371I); experiment: cell-based; assay type: cell-based; conditions: for Uptake of [3H]CQ (% PfCRTDd2 control), trans-stimulation / PfCRT-mediated [3H]CQ transport, trans-stimulation (% PfCRTDd2 control): PfCRTDd2 oocytes; for Uptake of [3H]CQ (% PfCRTDd2 control), trans-stimulation: total [3H]CQ transport, normalised to the oocyte type control; for PfCRT-mediated [3H]CQ transport, trans-stimulation (% PfCRTDd2 control): normalised to oocyte type control; for [3H]CQ transport (% PfCRTDd2 control), trans-stimulation, PfCRTDd2: PfCRT-mediated component (background subtracted), mean ± SEM, SEM
# T3 sequence (Q9N623 whole entry A220S/I356T/K76T/M74I/N326S/N75E/Q271E/R371I): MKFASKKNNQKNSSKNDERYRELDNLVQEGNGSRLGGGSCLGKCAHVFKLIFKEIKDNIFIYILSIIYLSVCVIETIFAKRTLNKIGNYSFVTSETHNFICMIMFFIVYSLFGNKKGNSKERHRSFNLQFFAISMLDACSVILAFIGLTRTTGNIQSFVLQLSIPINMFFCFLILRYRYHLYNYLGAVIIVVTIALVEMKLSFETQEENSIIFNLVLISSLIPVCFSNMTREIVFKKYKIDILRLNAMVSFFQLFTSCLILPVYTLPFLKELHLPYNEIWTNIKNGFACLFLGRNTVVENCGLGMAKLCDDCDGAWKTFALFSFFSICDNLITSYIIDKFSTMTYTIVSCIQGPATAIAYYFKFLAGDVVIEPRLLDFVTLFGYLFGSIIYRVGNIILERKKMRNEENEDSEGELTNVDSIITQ
# Outline: as §1
# PfCRT^3D7 [4] = target: T4, PfCRT^3D7 (Plasmodium falciparum, UniProt Q8IBZ9); experiment: cell-based; assay type: cell-based; conditions: PfCRT3D7 oocytes; for Uptake of [3H]CQ (% PfCRT3D7 control), trans-stimulation: total [3H]CQ transport, normalised to the oocyte type control; for PfCRT-mediated [3H]CQ transport, trans-stimulation (% PfCRT3D7 control): normalised to oocyte type control
# T4 sequence (Q8IBZ9 59-398): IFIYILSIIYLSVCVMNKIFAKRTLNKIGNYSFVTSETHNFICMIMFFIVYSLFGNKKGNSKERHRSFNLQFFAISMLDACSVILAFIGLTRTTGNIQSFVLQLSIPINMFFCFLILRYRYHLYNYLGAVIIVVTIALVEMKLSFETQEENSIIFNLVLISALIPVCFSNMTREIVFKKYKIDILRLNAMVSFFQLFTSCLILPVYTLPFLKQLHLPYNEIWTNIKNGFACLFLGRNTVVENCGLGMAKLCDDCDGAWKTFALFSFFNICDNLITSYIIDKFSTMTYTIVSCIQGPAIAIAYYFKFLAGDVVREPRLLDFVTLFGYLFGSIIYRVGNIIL
# Outline: as §1
# non-expressing oocytes [5] = experiment: cells; assay type: cell-based, Xenopus laevis; conditions: non-expressing oocytes, total [3H]CQ transport, normalised to the oocyte type control
# Outline: (§2)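 PfCRT-expressing and control oocytes: ND96 pH 5.5 → 1.5 h at 27.5 °C → ice-cold ND96 wash → 10% SDS lysis → scintillation count.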
# PfCRT^3D7 [6] = target: T4, PfCRT^3D7; experiment: cell-based; assay type: cell-based; conditions: PfCRT3D7 oocytes, total [3H]CQ transport, normalised to the oocyte type control
# Outline: as §2
# PfCRT^Ecu1110 [7] = target: T2, PfCRT^Ecu1110; experiment: [3H]CQ uptake into Xenopus oocytes, cis-inhibition by unlabelled solute; assay type: cell-based; conditions: for Uptake of [3H]CQ (% PfCRTEcu1110 control), cis-inhibition / PfCRT-mediated [3H]CQ transport, cis-inhibition (% PfCRTEcu1110 control): PfCRTEcu1110 oocytes; for Uptake of [3H]CQ (% PfCRTEcu1110 control), cis-inhibition: total [3H]CQ transport, normalised to the oocyte type control; for PfCRT-mediated [3H]CQ transport, cis-inhibition (% PfCRTEcu1110 control): background [3H]CQ accumulation subtracted, normalised to oocyte type control; for [3H]CQ transport (% PfCRTEcu1110 control), cis-inhibition, PfCRTEcu1110: PfCRT-mediated component (background subtracted), sheet title says normalised to PfCRTDd2 control, mean ± SEM, SEM
# Outline: as §2
# PfCRT^Dd2 [8] = target: T3, PfCRT^Dd2; experiment: as above; assay type: cell-based; conditions: PfCRTDd2 oocytes, background [3H]CQ accumulation subtracted, normalised to oocyte type control
# Outline: as §2
# [9] = [test solute]i = 45 mM (30 mM for some solutes due to solubility)
# [10] = [test solute]i = 5 mM (intracellular)
# [11] = [test solute]i = 45 mM (intracellular; 30 mM for some solutes due to solubility)
# [12] = [test solute]i = 5 mM (injected)
substance,measurement,setting,value
ASLD [AD-4],"Uptake of [3H]CQ (% non-expressing oocyte control), trans-stimulation",non-expressing oocytes [1]; [test solute]i = 5 mM,100 ± 4.9 % non-expressing oocyte control
same,"Uptake of [3H]CQ (% non-expressing oocyte control), trans-stimulation",non-expressing oocytes [1]; [9],98 ± 2.6 % non-expressing oocyte control
same,"Uptake of [3H]CQ (% PfNT1 control), trans-stimulation",PfNT1; [test solute]i = 5 mM,99 ± 2.5 % PfNT1 control
same,"Uptake of [3H]CQ (% PfNT1 control), trans-stimulation",PfNT1; [9],96 ± 2.2 % PfNT1 control
same,"Uptake of [3H]CQ (% PfCRTEcu1110 control), trans-stimulation",PfCRT^Ecu1110 [2]; [test solute]i = 5 mM,100 ± 3.2 % PfCRTEcu1110 control
same,"Uptake of [3H]CQ (% PfCRTEcu1110 control), trans-stimulation",PfCRT^Ecu1110 [2]; [9],99 ± 3.2 % PfCRTEcu1110 control
same,"PfCRT-mediated [3H]CQ transport, trans-stimulation (% PfCRTEcu1110 control)",PfCRT^Ecu1110 [2]; [10],98 ± 4.1 % PfCRTEcu1110 control
same,"PfCRT-mediated [3H]CQ transport, trans-stimulation (% PfCRTEcu1110 control)",PfCRT^Ecu1110 [2]; [11],97 ± 2.9 % PfCRTEcu1110 control
same,"[3H]CQ transport (% PfCRTDd2 control), trans-stimulation, PfCRTEcu1110",PfCRT^Ecu1110 [2]; [12],30 ± 1.7 % PfCRTEcu1110 control
same,"[3H]CQ transport (% PfCRTDd2 control), trans-stimulation, PfCRTEcu1110",PfCRT^Ecu1110 [2]; [9],29 ± 1.4 % PfCRTEcu1110 control
same,"Uptake of [3H]CQ (% PfCRTDd2 control), trans-stimulation",PfCRT^Dd2 [3]; [test solute]i = 5 mM,98 ± 3.3 % PfCRTDd2 control
same,"Uptake of [3H]CQ (% PfCRTDd2 control), trans-stimulation",PfCRT^Dd2 [3]; [9],97 ± 3.9 % PfCRTDd2 control
same,"PfCRT-mediated [3H]CQ transport, trans-stimulation (% PfCRTDd2 control)",PfCRT^Dd2 [3]; [10],96 ± 2.9 % PfCRTDd2 control
same,"PfCRT-mediated [3H]CQ transport, trans-stimulation (% PfCRTDd2 control)",PfCRT^Dd2 [3]; [11],95 ± 2.6 % PfCRTDd2 control
same,"[3H]CQ transport (% PfCRTDd2 control), trans-stimulation, PfCRTDd2",PfCRT^Dd2 [3]; [12],96 ± 2.9 % PfCRTDd2 control
same,"[3H]CQ transport (% PfCRTDd2 control), trans-stimulation, PfCRTDd2",PfCRT^Dd2 [3]; [9],95 ± 2.6 % PfCRTDd2 control
same,"Uptake of [3H]CQ (% PfCRT3D7 control), trans-stimulation",PfCRT^3D7 [4]; [test solute]i = 5 mM,99 ± 3.7 % PfCRT3D7 control
same,"Uptake of [3H]CQ (% PfCRT3D7 control), trans-stimulation",PfCRT^3D7 [4]; [9],100 ± 2.6 % PfCRT3D7 control
same,"PfCRT-mediated [3H]CQ transport, trans-stimulation (% PfCRT3D7 control)",PfCRT^3D7 [4]; [10],97 ± 2.0 % PfCRT3D7 control
same,"PfCRT-mediated [3H]CQ transport, trans-stimulation (% PfCRT3D7 control)",PfCRT^3D7 [4]; [11],98 ± 3.3 % PfCRT3D7 control
same,"Uptake of [3H]CQ (% non-expressing oocyte control), cis-inhibition",non-expressing oocytes [5]; [test solute] = 0.5 mM,99 ± 5.3 % non-expressing oocyte control
same,"Uptake of [3H]CQ (% non-expressing oocyte control), cis-inhibition",non-expressing oocytes [5]; [test solute] = 1 mM,99 ± 5.2 % non-expressing oocyte control
same,"Uptake of [3H]CQ (% non-expressing oocyte control), cis-inhibition",non-expressing oocytes [5]; [test solute] = 2 mM,99 ± 4.6 % non-expressing oocyte control
same,"Uptake of [3H]CQ (% PfCRT3D7 control), cis-inhibition",PfCRT^3D7 [6]; [test solute] = 0.5 mM,98 ± 4.4 % PfCRT3D7 control
same,"Uptake of [3H]CQ (% PfCRT3D7 control), cis-inhibition",PfCRT^3D7 [6]; [test solute] = 1 mM,99 ± 4.7 % PfCRT3D7 control
same,"Uptake of [3H]CQ (% PfCRT3D7 control), cis-inhibition",PfCRT^3D7 [6]; [test solute] = 2 mM,99 ± 6.1 % PfCRT3D7 control
same,"Uptake of [3H]CQ (% PfCRTEcu1110 control), cis-inhibition",PfCRT^Ecu1110 [7]; [test solute] = 0.5 mM,49 ± 9.7 % PfCRTEcu1110 control
same,"Uptake of [3H]CQ (% PfCRTEcu1110 control), cis-inhibition",PfCRT^Ecu1110 [7]; [test solute] = 1 mM,32 ± 8.5 % PfCRTEcu1110 control
same,"Uptake of [3H]CQ (% PfCRTEcu1110 control), cis-inhibition",PfCRT^Ecu1110 [7]; [test solute] = 2 mM,26 ± 5.6 % PfCRTEcu1110 control
same,"PfCRT-mediated [3H]CQ transport, cis-inhibition (% PfCRTEcu1110 control)",PfCRT^Ecu1110 [7]; [test solute] = 0.5 mM,42 ± 2.1 % PfCRTEcu1110 control
same,"PfCRT-mediated [3H]CQ transport, cis-inhibition (% PfCRTEcu1110 control)",PfCRT^Ecu1110 [7]; [test solute] = 1 mM,28 ± 3.4 % PfCRTEcu1110 control
same,"PfCRT-mediated [3H]CQ transport, cis-inhibition (% PfCRTEcu1110 control)",PfCRT^Ecu1110 [7]; [test solute] = 2 mM,21 ± 1.1 % PfCRTEcu1110 control
same,"[3H]CQ transport (% PfCRTEcu1110 control), cis-inhibition, PfCRTEcu1110",PfCRT^Ecu1110 [7]; [test solute] = 0.5 mM,13 ± 0.2 % PfCRTEcu1110 control
same,"[3H]CQ transport (% PfCRTEcu1110 control), cis-inhibition, PfCRTEcu1110",PfCRT^Ecu1110 [7]; [test solute] = 2 mM,6.0 ± 0.03 % PfCRTEcu1110 control
same,"PfCRT-mediated [3H]CQ transport, cis-inhibition (% PfCRTDd2 control)",PfCRT^Dd2 [8]; [test solute] = 0.5 mM,31 ± 1.9 % PfCRTDd2 control
same,"PfCRT-mediated [3H]CQ transport, cis-inhibition (% PfCRTDd2 control)",PfCRT^Dd2 [8]; [test solute] = 1 mM,22 ± 0.8 % PfCRTDd2 control
same,"PfCRT-mediated [3H]CQ transport, cis-inhibition (% PfCRTDd2 control)",PfCRT^Dd2 [8]; [test solute] = 2 mM,12 ± 0.3 % PfCRTDd2 control
